One experiment deals with LLC cells. Kind of experiment: LLC tumor growth in WT mice, anti-PD-L1 antibody and/or CD45 inhibitor. In kind it is in vivo, mouse. The settings on record: young WT mice; for tumor growth: CD45 inhibitor (3 mg/kg i.p., from day 7, three times) in combination with anti-PD-L1 antibody (2 mg/kg, days 7, 13, 19), LLC 2×10^6; for inhibitory effect against LLC tumor growth: CD45 inhibitor alone. As to the method: (§1) CD45 inhibition (FIG. 12): 2-(4-acetylanilino)-3-chloronaphthoquinone (211) (530197, EDM Millipore) (12) (3 mg/kg) or N-(9,10-dioxo-9,10-dihydrophenanthren-2-yl)-2,2-dimethylpropionamide (PTP) (540215, Sigma-Aldrich) (13) (3 mg/kg) was administered intraperitoneally to mice before tumor cell inoculation or 5 or 7 days after tumor cell inoculation. MC38 cells (5×10^5 or 1×10^6) or LLC cells (2×10^6) were intradermally inoculated into the right flank of mice (day 0). Seven days after LLC cell inoculation (day 7), mice received intraperitoneal administration of anti-PD-L1 antibody (clone 1-111A.4) (2 mg/kg). Administration of this anti-PD-L1 antibody was repeated 3 times at an interval of 6 days (on days 7, 13, and 19). Tumor size was measured with calipers, and tumor volume was calculated using the following formula: π (length×breadth×height)/6.
LLC cells (2×10^6 cells/tumor) were i.d. inoculated into the right flank of young (1 to 2-month old) WT mice (FIG. 16A). After 7 days, therapy was started using anti-PD-L1 antibody alone or in combination with CD45 inhibitor (211 or PTP) to examine tumor growth (FIG. 16A). […] Further, a therapeutic effect of using CD45 inhibitor alone was examined under similar conditions.

Experiment [1] relates to MC38 murine colon adenocarcinoma cells. Kind of experiment: MC38 tumor growth in PD-1 KO mice given CD45 inhibitor. In kind it is in vivo, mouse. Conditions: for tumor volume: PD-1 KO mice (2-month old), vs vehicle. As to the method:
as §1
CD45 inhibitor (211) was administered intraperitoneally at 3 mg/kg to PD-1 KO mice (2-month old) once 3 days before inoculation of MC38 murine colon adenocarcinoma cells (preadministration) or 3 times 5 days after inoculation of MC38 cells (postadministration) (FIG. 13A and B). MC38 cells were intradermally inoculated into the right flank of miceat 1×10^6 cells/tumor.
CD45 inhibitor (211) was administered intraperitoneally at 3 mg/kg to young (1 to 2-month old) or aged (14 to 16-month old) PD-1 KO mice […]. Three days after administration of 211, MC38 cells were intradermally inoculated into the right flank of mice at 5×10^5 cells/tumor, followed by monitoring tumor growth.

Take `CC(C)(C)C(=O)Nc1ccc2c(c1)C(=O)C(=O)c1ccccc1-2` [PTP, N-(9,10-dioxo-9,10-dihydrophenanthren-2-yl)-2,2-dimethylpropionamide]: in the experiment on LLC cells, the tumor growth entry was “significantly inhibited” and the “inhibitory effect against LLC tumor growth” value is on record as “significant inhibitory effect was not shown”.

Turning to `CC(=O)c1ccc(NC2=C(Cl)C(=O)c3ccccc3C2=O)cc1` [compound 211, 2-(4-acetylanilino)-3-chloronaphthoquinone], the tumor growth result was “strongly inhibited” in experiment [1] (aged (14 to 16-month old) PD-1 KO mice, 3 mg/kg i.p. 3 days before MC38 (5×10^5) inoculation) and “significantly inhibited” in the experiment on LLC cells. Also, the tumor volume result in experiment [1] (postadministration: 3 mg/kg i.p. 3 times from day 5 after MC38 (1×10^6) inoculation) and in experiment [1] (preadministration: 3 mg/kg i.p. once 3 days before MC38 (1×10^6) inoculation) was “significantly reduced” throughout. In the experiment with LLC cells, the “inhibitory effect against LLC tumor growth” value was “significant inhibitory effect was not shown”.

Source of the values: patent US20240148676A1, “COMBINATION THERAPY WITH PD-1 SIGNAL INHIBITOR” (Kyoto University, priority 2021, published 2024).
